Results reported in PMC9865645, “The Impact of N^ε-Acryloyllysine Piperazides on the Conformational Dynamics of Transglutaminase 2” (International Journal of Molecular Sciences, 2023).

Molecular target: T1, hTGase 2 (Homo sapiens, UniProt P21980)
T1 construct: purchased Zedira (Darmstadt, Germany) T022, lot 0716a
T1 sequence (P21980 1-687): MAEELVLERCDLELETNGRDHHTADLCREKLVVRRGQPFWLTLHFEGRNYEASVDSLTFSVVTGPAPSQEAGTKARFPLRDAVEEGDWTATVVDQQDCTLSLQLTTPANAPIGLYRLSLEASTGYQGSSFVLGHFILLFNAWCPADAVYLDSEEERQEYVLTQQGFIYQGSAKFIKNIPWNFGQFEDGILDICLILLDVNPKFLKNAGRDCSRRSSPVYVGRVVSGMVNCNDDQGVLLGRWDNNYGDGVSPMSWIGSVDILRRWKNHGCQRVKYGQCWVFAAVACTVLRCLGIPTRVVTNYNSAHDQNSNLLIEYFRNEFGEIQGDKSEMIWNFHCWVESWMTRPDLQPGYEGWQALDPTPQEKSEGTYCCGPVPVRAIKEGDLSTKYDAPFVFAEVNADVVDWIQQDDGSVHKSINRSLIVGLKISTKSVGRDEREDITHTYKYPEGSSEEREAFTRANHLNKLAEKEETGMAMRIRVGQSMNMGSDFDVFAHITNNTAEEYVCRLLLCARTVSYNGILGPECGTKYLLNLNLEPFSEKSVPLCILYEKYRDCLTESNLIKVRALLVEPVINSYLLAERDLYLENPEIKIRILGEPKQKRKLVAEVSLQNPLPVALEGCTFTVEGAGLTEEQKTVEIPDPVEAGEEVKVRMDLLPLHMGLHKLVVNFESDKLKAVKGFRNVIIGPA
Assay: switchSENSE static mode (fluorescence proximity sensing): binding kinetics of GTPγS to hTGase 2-dsDNA lever
Details: for koff / kon: 20 nM GTPγS, best-fit ± standard error; for Kd: quotient koff/kon
Description: The switchSENSE® experiments were performed with a DRX^2 (Dynamic Biosensors, excitation 600–630 nm, emission 650–686 nm). All experiments were performed in TE40 (10 mM TRIS pH 7.4, 40 mM NaCl, 50 µM EDTA, 50 µM EGTA, 100 µM TCEP, 0.05% Tween 20) when not explicitly stated otherwise. For the dynamic mode measurements, the standard operation procedures as described in [56] were applied. For measurements of the kinetics of the interaction of both GTPγS and CaCl2 with hTGase 2, firstly, the ssDNA-hTGase 2 conjugate was hybridized for 360 s to the ssDNA capture strand on the gold microelectrodes of the chip. With 500 nM, the conjugate concentration was chosen relatively high to achieve full coverage of the electrodes. Secondly, 1000 µL of 20 nM GTPγS in TE40 were flushed over the electrodes, followed by about 4000 µL of TE40 (2000 µL/min), to obtain access to the association as well as the dissociation, respectively. Changes in the fluorescence intensity during the GTPγS interaction were recorded using fluorescence proximity sensing (static mode).
The formation of the protein–ligand complex of GTPγS and hTGase 2 can be represented by the reaction equation expressed by Equation (1). (1) P+L kon⇌koff PL
The concentration of the protein–ligand complex, [PL] , at a certain time of association ta is [PL]a . At the beginning of the association, there is no surface-bound complex present, i.e., [PL]=0 , and the ligand concentration is assumed to be constant at [L]=cGTPγS . This neglects diffusion limitation by assuming continuous replacement of the medium at the electrode surface in the microfluidic channel. Thus, the time-dependent equilibrium fraction reached at the association time ta can be expressed by Equation (2). For derivation, see Equations (S1) to (S5) in Supplementary Materials. (2) [PL]a/[PL]∞=1−e^−ka·ta
In Equation (2), [PL]∞ is the equilibrium concentration of the protein–ligand complex, and ka is the apparent rate constant in the association experiment, defined by Equation (3). (3) ka=cGTPγS kon+koff
During the dissociation, the concentration of the free ligand is assumed to be constantly zero. Consequently, Equation (6) should be valid (for derivation, see Equations (S7) to (S10) in Supplementary Materials). (6) [PL]d/[PL]d,0=e^−koff·td
Combining Equations (6) and (7), the time-dependent fluorescence intensity during the dissociation is given by Equation (8). (8) Fd=(Fd,s−Fd,e)(e^−koff·td)+Fd,e
Equations (5) and (8) were fitted to the measured fluorescence intensities of the association and dissociation experiments with 20 nM GTPγS, respectively. This was performed by a damped Gauss–Newton algorithm (see Equations (S12) and (S13) in Supplementary Materials) to determine the best-fit parameters, and consequently, kon and koff. The quotient koff/kon is the dissociation constant, Kd. Additionally, the standard errors of these parameters were estimated (Equations (S14) to (S21) in Supplementary Materials).

[1] = His-tag-directed labeling of hTGase 2
[2] = non-directed labeling of hTGase 2

Nc1nc2c(ncn2[C@@H]2O[C@H](COP(=O)(O)OP(=O)(O)OP(O)(O)=S)[C@@H](O)[C@H]2O)c(=O)[nH]1 [GTPγS]
koff [1]: 1.9 ± 0.5 10^−2 s^−1
kon [1]: 16 ± 2 10^6 M^−1 s^−1
Kd [1]: 1.2 ± 0.4 nM
koff [2]: 1.6 ± 0.6 10^−2 s^−1
kon [2]: 17 ± 4 10^6 M^−1 s^−1
Kd [2]: 1 ± 0.4 nM
